Test results as given in ChEMBL document CHEMBL2375313, “Synthesis, in vitro antitumor evaluation and DNA-binding study of novel tetrahydroquinolines and some derived tricyclic and tetracyclic ring systems” (Eur J Med Chem, 2013).

Legend:
Assay type in all cases: functional
[1] = Cytotoxicity against human renal cancer cells after 48 hrs by sulphorhodamine B assay; conditions: Cancer cell lines
[2] = Cytotoxicity against human leukemia cells after 48 hrs by sulphorhodamine B assay; conditions: Leukemia cell
[3] = Cytotoxicity against human ovarian cancer cells after 48 hrs by sulphorhodamine B assay; conditions: Cancer cell lines
[4] = Cytotoxicity against human colon cancer cells after 48 hrs by sulphorhodamine B assay; conditions: Cancer cell lines
[5] = Cytotoxicity against human non-small cell lung cancer cells after 48 hrs by sulphorhodamine B assay; conditions: Cancer cell lines
[6] = Cytotoxicity against human breast cancer cells after 48 hrs by sulphorhodamine B assay; conditions: Cancer cell lines
[7] = Cytotoxicity against human prostate cancer cells after 48 hrs by sulphorhodamine B assay; conditions: Cancer cell lines
[8] = Cytotoxicity against human melanoma cells after 48 hrs by sulphorhodamine B assay; conditions: Melanoma cell
[9] = Cytotoxicity against human CNS cancer cells after 48 hrs by sulphorhodamine B assay; conditions: Cancer cell lines
[10] = read-out: LC50 (the source's name)

What does the source list for `O=c1[nH]cc(F)c(=O)[nH]1` [FLUOROURACIL]?
GI50 [1]: 45.6 µM; TGI [1]: > 100 µM; TGI [2]: > 100 µM; GI50 [3]: 61.4 µM; TGI [3]: > 100 µM; CC50 [3, 10]: > 100 µM; GI50 [4]: 8.4 µM; TGI [4]: > 100 µM; CC50 [4, 10]: > 100 µM; GI50 [5]: > 100 µM; TGI [5]: > 100 µM; GI50 [6]: 76.4 µM; TGI [6]: > 100 µM; GI50 [7]: 22.7 µM; TGI [7]: > 100 µM; GI50 [8]: 70.6 µM; TGI [8]: > 100 µM; CC50 [8, 10]: > 100 µM; TGI [9]: > 100 µM
